Experiments:
[1] = test system: IBABP mRNA in HT29-FXRFL cells; assay: Northern blot of IBABP mRNA induction in HT29 stable cell lines; type: cell-based, human; settings: for induction of IBABP mRNA in control lines: HT29-BABE or HT29-FXR-AF2 cell lines; for concentration of maximal activation of the IBABP gene / induction of IBABP mRNA: HT29-FXRFL, overnight treatment
Procedure: 20 μg total RNA was isolated using Trizol (Invitrogen) and used for Northern blot analysis. cDNA probe for human IBABP was prepared and hybridized to the blot. Blots were normalized by β-actin expression.
(§1) HepG2 or HT29-derived cell lines were typically cultured in medium containing superstripped FBS for 24 hr before the addition of a ligand or DMSO (vehicle) for an additional 24-48 hr. Total RNA was isolated using TRIzol reagent and was resolved (10 μg/lane) on a 1% agarose, 2.2 M formaldehyde gel, transferred to a nylon membrane (Hybond N^+; Amersham Biosciences, Inc.), and cross-linked to the membrane with UV light.
(§2) cDNA probes were radiolabeled with [α-^32P]dCTP using the highprime labeling kit (Amersham Biosciences, Inc.). Membranes were hybridized using the QuikHyb hybridization solution (Stratagene, La Jolla, Calif.) according to the manufacturer's protocol. Blots were normalized for variations of RNA loading by hybridization to a control probe, either, 18 S ribosomal cDNA, or the ribosomal protein 36B4. The RNA levels were quantitated using a PhosphorImager (ImageQuant software; Molecular Dynamics, Inc., Sunnyvale, Calif.) in addition to being exposed to X-ray film.
Human colon cells HT29 (FXR null until differentiated) were infected with retroviral vectors that expressed either FXR constructs and the puromycin-resistant gene or the puromycin-resistant gene alone. Puromycin resistant cells were isolated and pooled cell populations were propagated that harbored either the vector alone (HT29-BABE), overexpressed FXR full length (HT29-FXRFL), a non-functional FXR truncated at the AF2 region (HT29-FXR-AF2), or a constitutively active FXR that has the VP16 activation domain fused N-terminal of the protein (HT29-VP16-FXR). Confirmation of the successful establishment of the different stable cell lines was established via northern blot analysis of FXR message levels in the cells (see FIG. 4A). […]
The ability of the novel compounds identified herein to induce IBABP gene expression in this cell system was also examined. Total RNA from HT29 stable cells treated overnight with fexaramine, fexarine and fexarene was probed for IBABP gene expression (see FIG. 4D).

[2] = test system: FXR target genes SHP, MRP-2, BSEP and PLTP in HEPG2-FXR cells; assay: Northern blot of FXR target genes in HEPG2-FXR cells; type: cell-based, human; settings: for induction of FXR target genes: SHP, MRP-2, BSEP, PLTP; for concentration of maximal activation of FXR target genes: overnight treatment
Procedure: 20 μg total RNA was isolated using Trizol (Invitrogen) and used for Northern blot analysis. cDNA probes for human PLTP, SHP, MRP-2 and BSEP were prepared and hybridized to the blot. Blots were normalized by 36B4 expression as shown.
as §1, §2
Total RNA was isolated and the expression of the FXR target genes SHP, MRP-2, BSEP and PLTP was measured by Northern blot analysis (see FIG. 4E).
Differences in efficacy of target gene induction between the liver and the intestinal cell systems may reflect the ability of the liver hepatocytes to mount a xenobotic response or cell specific permeability to the identified compounds. Modification of the ligands to overcome these effects may be made in order to increase the efficacy of these drugs in liver cell systems.

mCAR = target: T1, mCAR (Mus musculus, UniProt O35627); assay: GAL4 chimeric NHR cross-reactivity assay; type: cell-based; settings: 10 μM
T1 construct: expressed in transfected cells; host or cells: CV-1 (monkey)
T1 sequence (O35627 119-358 limits assumed): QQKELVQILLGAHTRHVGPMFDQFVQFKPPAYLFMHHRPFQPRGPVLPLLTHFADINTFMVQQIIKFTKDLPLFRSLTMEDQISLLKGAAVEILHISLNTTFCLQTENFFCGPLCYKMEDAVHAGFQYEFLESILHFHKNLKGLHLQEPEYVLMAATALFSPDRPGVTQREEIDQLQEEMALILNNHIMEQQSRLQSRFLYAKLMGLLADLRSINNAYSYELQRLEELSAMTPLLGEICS
Procedure: FIGS. 3A-3E collectively show the results of ligand activation of CV-1 cells co-transfected with a luciferase reporter gene with a variety of receptor expression constructs. […] FIGS. 3C-3E show the results of CV-1 cells transiently transfected with the indicated reporter constructs, treated with either DMSO or 10 μM of the compounds fexaramine (3C), fexarine (3D), fexarene (3E). Reporter activity was normalized to the internal control and the data plotted as fold activation relative to untreated cells. All transfections contained CMX-βgal as an internal control.
The expression plasmids pCMX, pCMX-LacZ, pCMX-mFXRFL, pCMX-hRXRFL, pCMX-GALDBD-rFXRLBD and other pCUX-GALDBD-NR LBDs (hRXRα, hPPARαγδ, mPXR, hPXR, hLXRα, HTRβ, hRARβ, mCAR, mERR3 and hVDR) have been described elsewhere (Blumberg et al. (1998). SXR, a novel steroid and xenobiotic-sensing nuclear receptor. Genes Dev. 12(20), 3195-205). The reporter plasmids pMH2004-TK-luc, pTKECRE*6-luc, pTKER-8*2-luc and pMRP-2-luc also have been described elsewhere. The hPLTP-luc promoter was kindly provided by Dr Dennis Dowhan and the hIBABP-luc promoter was created from a plasmid provided by Dr Philippe Besnard.
Cell-based transcriptional activation assays using chimeric nuclear hormone receptor (NHR) constructs were established to measure the selectivity of the compounds to FXR relative to other NHRs (Forman et al. (1995). Identification of a nuclear receptor that is activated by farnesol metabolites. Cell 81, 687-693). These assays used fusion proteins with the yeast GAL4 DNA binding domain connected to the ligand-binding domain (LBD) of NHRs. These constructs were co-transfected with a thymidine kinase C minimal promoter reporter vector containing four copies of the GAL4 binding site. Titration experiments were then performed using the identified compounds. […] Addition of RXR had no effect on the activation potential of fexaramine, fexarine, fexarene in this assay.
No activity was observed on other chimeric NHR constructs including hRXRα, hPPARαγδ, mPXR, hPXR, hLXRα, hTRβ, hRARβ, mCAR, mERR3 and hVDR (see FIGS. 3C-3E).

COC(=O)/C=C/c1cccc(N(Cc2ccc(-c3ccc(N(C)C)cc3)cc2)C(=O)C2CCCCC2)c1 [fexaramine]
induction of IBABP mRNA in control lines [1]: No induction
concentration of maximal activation of the IBABP gene [1]: 1 µM
induction of IBABP mRNA [1]: induced expression of the IBABP mRNA
induction of FXR target genes [2]: most effective inducer
concentration of maximal activation of FXR target genes [2]: 10 µM
activity on chimeric mCAR construct (mCAR): No activity

COC(=O)/C=C/c1cccc(N(Cc2ccc(/C=C/c3ccccc3)cc2)C(=O)C2CCCCC2)c1 [fexarene]
induction of IBABP mRNA in control lines [1]: No induction
concentration of maximal activation of the IBABP gene [1]: 1 µM
induction of IBABP mRNA [1]: induced expression of the IBABP mRNA
induction of FXR target genes [2]: strong induction
concentration of maximal activation of FXR target genes [2]: 10 µM
activity on chimeric mCAR construct (mCAR): No activity

COC(=O)/C=C/c1cccc(N(Cc2ccc(-c3ccc4c(c3)OCO4)cc2)C(=O)C2CCCCC2)c1 [fexarine]
induction of IBABP mRNA in control lines [1]: No induction
concentration of maximal activation of the IBABP gene [1]: 1 µM
induction of IBABP mRNA [1]: induced expression of the IBABP mRNA
induction of FXR target genes [2]: strong induction
concentration of maximal activation of FXR target genes [2]: 10 µM
activity on chimeric mCAR construct (mCAR): No activity

CC(C)c1onc(-c2c(Cl)cccc2Cl)c1COc1ccc(/C=C/c2cccc(C(=O)O)c2)c(Cl)c1 [GW4064, reference compound]
induction of IBABP mRNA in control lines [1]: No induction
concentration of maximal activation of the IBABP gene [1]: 1 µM
induction of IBABP mRNA [1]: robust concentration dependent induction

Source: patent publication US7647217B2, “Structure of the farnesoid X receptor ligand binding domain and methods of use therefor” (The Salk Institute for Biological Studies, priority 2002, dated 2010)
